This is an account of results in ChEMBL document CHEMBL1201862, “PubChem BioAssay data set” (2004).

Among the test systems are U-251; KM12; LOX IMVI; UO-31; OVCAR-3; HCT-15; M14; SNB-19; SK-MEL-2; ACHN; UACC-62; SF-295; MDA-MB-435; SF-539; SN12C; TK-10; SW-620; OVCAR-4; NCI-H522; RXF 393.
Holding throughout (assay): growth of human tumour cells (NCI), 48 h

The structures appear in SMILES notation.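 Compound exposure: 48 hours, 5 concentrations, 96-well plates. Abbreviation: GI50, concentration required for 50% inhibition of growth.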 Activity calls are given as the source filed them. Rule as the data show it: active = GI50 up to about 1.1 µM and inactive = higher. Where only a bound is given, the exact number is not on record here.

`O=c1[nH]c(N/N=C\C(O)C(O)C(O)CO)nc2ccccc12` (stereo not drawn): the GI50 with U-251 was > 100 µM (inactive); with KM12 it was > 100 µM (inactive); in the assay with LOX IMVI it was > 100 µM (inactive); in the assay with UO-31, > 100 µM (inactive); in the assay with OVCAR-3, > 100 µM (inactive); with HCT-15 it was more than 100 µM. The GI50 in the assay with M14, in the assay with SNB-19, with SK-MEL-2, in the assay on ACHN, in the assay on UACC-62 and with SF-295 was > 100 µM (inactive) in each case. For the same compound, the GI50 in the assay with MDA-MB-435, with SF-539, in the assay with SN12C, with TK-10 and in the assay on SW-620 was > 100 µM (inactive) each time.
Take `O=C(/C=C/c1cccc([N+](=O)[O-])c1)c1cccnc1`: the GI50 is 20.6 µM (inactive) in the assay with U-251; 19.9 µM (inactive) with KM12; 21.2 µM (inactive) in the assay on LOX IMVI; > 45.1 µM (inactive) in the assay on UO-31; 27.5 µM (inactive) in the assay on OVCAR-3; > 91 µM (inactive) in the assay on OVCAR-4. Further, the GI50 with HCT-15 is 43.5 µM; in the assay on M14, 13.7 µM (inactive); with NCI-H522, 7.98 µM (inactive); with SNB-19, > 53.3 µM (inactive); in the assay with SK-MEL-2, > 100 µM (inactive); in the assay on RXF 393 it was 18.1 µM (inactive). For the same compound, the GI50 is 71.1 µM (inactive) with ACHN; 30.2 µM (inactive) with UACC-62; 46 µM (inactive) in the assay on SF-295; 21.1 µM (inactive) in the assay with SF-539; 26.5 µM (inactive) with SN12C; > 100 µM (inactive) in the assay with TK-10. The GI50 with SW-620 is 19.4 µM (inactive).
As to `CN(C)C1(C#N)CCC2(CC1)OCCO2`, the GI50 in the assay with U-251, in the assay with KM12, in the assay on LOX IMVI, with UO-31, in the assay on OVCAR-3 and in the assay with OVCAR-4 was > 100 µM (inactive) throughout. The GI50 with HCT-15 was more than 100 µM; in the assay with M14 it was > 100 µM (inactive); in the assay on NCI-H522, > 100 µM (inactive); in the assay with SNB-19 it was > 100 µM (inactive); in the assay on SK-MEL-2, > 100 µM (inactive); with RXF 393, > 100 µM (inactive). Also, the GI50 in the assay on ACHN, in the assay on UACC-62, in the assay on SF-295, in the assay on SF-539, in the assay with SN12C and with TK-10 was > 100 µM (inactive) each time. Also, the GI50 in the assay with SW-620 is > 100 µM (inactive).
In the case of `C=Cc1cncc(C#N)c1CCc1c(C#N)cncc1C=C`, the GI50 in the assay with U-251 was > 10 µM (inactive); in the assay with KM12, > 10 µM (inactive); in the assay with LOX IMVI it was > 100 µM (inactive); in the assay with UO-31 it was > 10 µM (inactive); in the assay with OVCAR-3 it was > 10 µM (inactive); in the assay with OVCAR-4 it was > 10 µM (inactive). For the same compound, the GI50 is more than 10 µM in the assay on HCT-15; > 10 µM (inactive) with M14; > 10 µM (inactive) in the assay with NCI-H522; > 10 µM (inactive) with SNB-19; > 10 µM (inactive) in the assay with SK-MEL-2; 56.5 µM (inactive) in the assay with RXF 393. The GI50 in the assay on ACHN, in the assay with UACC-62, in the assay with SF-295, in the assay on SF-539, in the assay with SN12C and with TK-10 was > 10 µM (inactive) in each case. The GI50 in the assay on SW-620 is > 10 µM (inactive).
Consider `Cc1cc(O)nc(NNC(C#N)c2ccc([N+](=O)[O-])cc2)n1` (stereo not drawn), for which the GI50 is > 100 µM (inactive) in the assay on U-251; 84.9 µM (inactive) in the assay with KM12; > 100 µM (inactive) with LOX IMVI; 47.5 µM (inactive) in the assay with UO-31; > 100 µM (inactive) in the assay on OVCAR-3; > 100 µM (inactive) in the assay on OVCAR-4. Also, the GI50 with HCT-15 was more than 100 µM; in the assay with M14, > 100 µM (inactive); in the assay with NCI-H522, > 100 µM (inactive); in the assay with SK-MEL-2, > 100 µM (inactive); in the assay on RXF 393 it was 93.8 µM (inactive); in the assay with ACHN it was 74.8 µM (inactive). The GI50 with UACC-62 is > 100 µM (inactive); with SF-295 it was > 100 µM (inactive); with SF-539, > 100 µM (inactive); in the assay on SN12C it was > 100 µM (inactive); in the assay on TK-10, > 100 µM (inactive); in the assay with SW-620, 95.3 µM (inactive).
Regarding `CC(=O)OCC(OC(C)=O)C(OC(C)=O)C(OC(C)=O)C(=O)CNn1c(-c2ccccc2Cl)nc2ccc(Br)cc2c1=O` (stereo not drawn), the GI50 is 87.9 µM (inactive) in the assay with U-251; > 100 µM (inactive) with KM12; 82 µM (inactive) with LOX IMVI; 85.5 µM (inactive) in the assay on UO-31; 62.2 µM (inactive) with OVCAR-3; 87.1 µM (inactive) with OVCAR-4. Besides, the GI50 in the assay with HCT-15 is 78.7 µM; with M14 it was > 100 µM (inactive); in the assay with NCI-H522, 33.2 µM (inactive); with SNB-19, 81.1 µM (inactive); in the assay on SK-MEL-2, > 100 µM (inactive); with RXF 393 it was 67 µM (inactive). Moreover, the GI50 is > 100 µM (inactive) in the assay with ACHN; 30.6 µM (inactive) with UACC-62; > 100 µM (inactive) in the assay on SF-295; > 100 µM (inactive) in the assay on SF-539; 36.3 µM (inactive) with SN12C; > 100 µM (inactive) in the assay on SW-620.
On to `CC(=O)NC(CCCCNCc1ccccc1)C(=O)NCc1ccccc1` (stereo not drawn), for which the GI50 with U-251, in the assay on KM12, in the assay with LOX IMVI, in the assay with UO-31, with OVCAR-3 and with OVCAR-4 was > 100 µM (inactive) in each case. Further, the GI50 was more than 100 µM with HCT-15; > 100 µM (inactive) with M14; > 100 µM (inactive) in the assay on NCI-H522; > 100 µM (inactive) with SNB-19; > 100 µM (inactive) in the assay with SK-MEL-2; > 100 µM (inactive) in the assay on RXF 393. Further, the GI50 with ACHN, in the assay with UACC-62, in the assay on SF-295, with SF-539, with SN12C and in the assay on TK-10 was > 100 µM (inactive) each time. Besides, the GI50 with SW-620 was > 100 µM (inactive).
For `COC(=O)C(=O)CC(=O)CCn1ncc(Cl)c(Cl)c1=O`, the GI50 with U-251 is 9.23 µM (inactive); in the assay on KM12 it was 25.9 µM (inactive); in the assay with LOX IMVI, 7.16 µM (inactive); in the assay on UO-31, 18.1 µM (inactive); in the assay on OVCAR-3, 12.8 µM (inactive); in the assay with OVCAR-4, 4.62 µM (inactive). The GI50 was 4.14 µM in the assay with HCT-15; 14.7 µM (inactive) with M14; 0.57 µM (active) with NCI-H522; 18.5 µM (inactive) in the assay with SNB-19; 18.1 µM (inactive) in the assay on SK-MEL-2; 20.2 µM (inactive) with RXF 393. Further, the GI50 in the assay with ACHN is 20.1 µM (inactive); with UACC-62, 10 µM (inactive); in the assay with SF-295, 13.7 µM (inactive); with SF-539, 19.6 µM (inactive); in the assay with SN12C, 16.9 µM (inactive); in the assay with TK-10, 47.4 µM (inactive). For the same compound, the GI50 in the assay with SW-620 was 8.36 µM (inactive).
For the compound `COC1=CC(=O)C2C(C1=O)[C@@H]1c3ccccc3OC[C@H]21` (stereo partly drawn), the GI50 in the assay with U-251, with KM12, in the assay on LOX IMVI, in the assay with UO-31, in the assay on OVCAR-3 and in the assay on OVCAR-4 was > 100 µM (inactive) in each case. Further, the GI50 was more than 10 µM in the assay on HCT-15; > 100 µM (inactive) with M14; 49.9 µM (inactive) with NCI-H522; > 100 µM (inactive) in the assay with SNB-19; > 100 µM (inactive) with SK-MEL-2; > 100 µM (inactive) with RXF 393. Further, the GI50 in the assay on ACHN, with SF-295, with SF-539, with TK-10 and with SW-620 was > 100 µM (inactive) in each case.
In the case of `CC1C(=O)CCC1C(Sc1ccccc1)(Sc1ccccc1)Sc1ccccc1` (stereo not drawn), the GI50 in the assay on U-251 was 33.8 µM (inactive); in the assay with KM12, 24.7 µM (inactive); with LOX IMVI, 21 µM (inactive); in the assay on UO-31, 1.32 µM (inactive); in the assay with OVCAR-3, 17.6 µM (inactive); with OVCAR-4, 18.8 µM (inactive). In addition, the GI50 with HCT-15 is 30.3 µM; in the assay with M14 it was 25 µM (inactive); in the assay with NCI-H522, 11.1 µM (inactive); with SNB-19 it was 26.5 µM (inactive); in the assay on SK-MEL-2 it was 34.9 µM (inactive); with RXF 393, 14.2 µM (inactive). The GI50 in the assay with ACHN is 19.9 µM (inactive); in the assay with UACC-62 it was 18 µM (inactive); in the assay with SF-295, 36.8 µM (inactive); in the assay on SF-539, 18.7 µM (inactive); in the assay with SN12C it was 21.1 µM (inactive); in the assay with TK-10, 47.9 µM (inactive). In addition, the GI50 with SW-620 is 27 µM (inactive).
Take `CCC1(CN(C)C)CC/C(=C\c2ccc(OC)c(OC)c2)C1=O` (stereo not drawn): the GI50 with U-251 is > 100 µM (inactive); with KM12, > 100 µM (inactive); in the assay with LOX IMVI, > 100 µM (inactive); in the assay with UO-31 it was > 100 µM (inactive); in the assay on OVCAR-3, 97.9 µM (inactive); in the assay on OVCAR-4, > 100 µM (inactive). Besides, the GI50 with HCT-15 was more than 100 µM; in the assay with M14, > 100 µM (inactive); in the assay on NCI-H522 it was 64.1 µM (inactive); in the assay on SNB-19, > 100 µM (inactive); with SK-MEL-2, > 100 µM (inactive); in the assay with RXF 393 it was > 100 µM (inactive). Further, the GI50 in the assay with ACHN was > 100 µM (inactive); in the assay on UACC-62, > 69.3 µM (inactive); in the assay with SF-295, > 100 µM (inactive); in the assay on SF-539, > 100 µM (inactive); in the assay with SN12C it was > 100 µM (inactive); in the assay on TK-10 it was > 100 µM (inactive). Further, the GI50 in the assay on SW-620 was > 100 µM (inactive).
